According to US20050043378A1, “LTA4H modulators” (priority 2003, published 2005):
Structures can show the parent of a compound that is named as a salt.

target: T1, recombinant human LTA4 hydrolase (rhLTA4H) (Homo sapiens, UniProt P09960); test: Recombinant human LTA4 hydrolase assay for LTA4 hydrolase inhibitor activity; type: biochemical; conditions: LTA4 substrate, LTB4 by immunoassay, average of one to three determinations;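 further: enzyme expressed in Sf-9 insect cells, compound preincubated 10 min with enzyme, 10 min reaction at room temperature, uninhibited reaction as positive control, enzyme-free blank as negative control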
T1 construct: made in house; host or cells: Spodoptera frugiperda (Sf-9) cells, baculovirus (pFastBac1)
T1 sequence (P09960 1-611): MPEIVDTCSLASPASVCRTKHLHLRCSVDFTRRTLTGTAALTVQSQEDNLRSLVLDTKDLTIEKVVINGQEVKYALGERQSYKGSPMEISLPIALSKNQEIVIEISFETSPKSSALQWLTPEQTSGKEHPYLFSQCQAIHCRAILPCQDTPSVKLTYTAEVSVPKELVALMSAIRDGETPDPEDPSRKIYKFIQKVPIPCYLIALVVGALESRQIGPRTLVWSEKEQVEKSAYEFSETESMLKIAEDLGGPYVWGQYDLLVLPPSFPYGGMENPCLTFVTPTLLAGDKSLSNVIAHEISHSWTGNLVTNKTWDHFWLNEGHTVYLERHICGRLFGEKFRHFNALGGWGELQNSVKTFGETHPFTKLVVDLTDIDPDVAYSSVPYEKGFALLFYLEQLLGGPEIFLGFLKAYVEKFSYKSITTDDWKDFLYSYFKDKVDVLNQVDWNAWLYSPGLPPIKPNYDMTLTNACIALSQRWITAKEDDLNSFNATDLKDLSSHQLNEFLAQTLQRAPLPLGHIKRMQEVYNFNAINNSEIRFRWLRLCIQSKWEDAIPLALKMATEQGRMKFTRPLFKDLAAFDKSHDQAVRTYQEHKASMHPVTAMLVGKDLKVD

SMILES	IC50
OC(COc1ccc(Oc2nc3ccccc3o2)cc1)CN1CCCC1 (stereo not shown) [Example 135, 1-[4-(Benzooxazol-2-yloxy)-phenoxy]-3-pyrrolidin-1-yl-propan-2-ol]	92 nM
CN(C)CCCOc1ccc(Oc2nc3ccccc3o2)cc1 [Example 45, {3-[4-(Benzooxazol-2-yloxy)-phenoxy]-propyl}-dimethyl-amine]	15 nM
O=S(=O)(c1ccc(Cl)cc1)N(C1CC1)C1CCN(CCOc2ccc(Oc3nc4ccccc4s3)cc2)CC1 [Example 168, N-(1-{2-[4-(Benzothiazol-2-yloxy)-phenoxy]-ethyl}-piperidin-4-yl)-4-chloro-N-cyclopropyl-benzene sulfonamide]	27 nM
NC(=O)C1CCN(CCOc2ccc(Cc3nc4ccccc4s3)cc2)CC1 [Example 147, 1-[2-(4-Benzothiazol-2-ylmethyl-phenoxy)-ethyl]-piperidine-4-carboxylic acid amide]	33 nM
c1ccc2sc(Oc3ccc(OCCn4cnnn4)cc3)nc2c1 [Example 224, 2-[4-(2-Tetrazol-1-yl-ethoxy)-phenoxy]-benzothiazole]	14 nM
OCC1CCCN(CCOc2ccc(Oc3nc4ccccc4s3)cc2)C1 (stereo not shown) [Example 265, (1-{2-[4-(Benzothiazol-2-yloxy)-phenoxy]-ethyl}-piperidin-3-yl)-methanol]	112 nM
CCOC(=O)C1CCN(CCOc2ccc(Oc3nc4ccccc4[nH]3)cc2)CC1 [Example 485, 1-{2-[4-(1H-Benzoimidazol-2-yloxy)-phenoxy]-ethyl}-piperidine-4-carboxylic acid ethyl ester]	39 nM
c1ccc2[nH]c(Oc3ccc(CCN4CCCCC4)cc3)nc2c1 [Example 230, 2-[4-(2-Piperidin-1-yl-ethyl)-phenoxy]-1H-benzoimidazole]	36 nM
c1ccc2oc(Oc3ccc(OCCN4CCC4)cc3)nc2c1 [Example 77, 2-[4-(2-Azetidin-1-yl-ethoxy)-phenoxy]-benzooxazole]	10 nM
CCN(CC)CCOc1ccc(Oc2nc3ccc(Cl)cc3s2)cc1 [Example 12, {2-[4-(6-Chloro-benzothiazol-2-yloxy)-phenoxy]-ethyl}-diethyl-amine]	100 nM
O=C(C1CCN(CCOc2ccc(Oc3nc4ccccc4s3)cc2)CC1)N1CCN(CCO)CC1 [Example 195, (1-{2-[4-(Benzothiazol-2-yloxy)-phenoxy]-ethyl}-piperidin-4-yl)-[4-(2-hydroxy-ethyl)-piperazin-1-yl]-methanone]	58 nM
O=C(O)C1CC1CN(CCc1ccc(Oc2nc3ccccc3s2)cc1)C1CC1 (stereo not shown) [Example 211, 2-[({2-[4-(Benzothiazol-2-yloxy)-phenyl]-ethyl}-cyclopropyl-amino)-methyl]-cyclopropanecarboxylic acid]	9 nM
c1ccc2sc(Oc3ccc(CCN4CCN(CCN5CCOCC5)CC4)cc3)nc2c1 [Example 146, 2-(4-{2-[4-(2-Morpholin-4-yl-ethyl)-piperazin-1-yl]-ethyl}-phenoxy)-benzothiazole]	43 nM
c1ccc2sc(Oc3ccc(OCCN4CCC(c5nnn[nH]5)CC4)cc3)nc2c1 [Example 270, 2-(4-{2-[4-(1H-Tetrazol-5-yl)-piperidin-1-yl]-ethoxy}-phenoxy)-benzothiazole]	16 nM
O=C(CN1CCN(CCOc2ccc(Oc3nc4ccccc4s3)cc2)CC1)N1CCCC1 [Example 153, 2-(4-{2-[4-(Benzothiazol-2-yloxy)-phenoxy]-ethyl}-piperazin-1-yl)-1-pyrrolidin-1-yl-ethanone]	8 nM
O=C1CCCN1C1CCN(CCOc2ccc(Oc3nc4ccccc4[nH]3)cc2)CC1 [Example 231, 1-(1-{2-[4-(1H-Benzoimidazol-2-yloxy)-phenoxy]-ethyl}-piperidin-4-yl)-pyrrolidin-2-one]	18 nM
CCN(CCO)Cc1ccc(Oc2nc3ccccc3s2)cc1 [Example 287, 2-{[4-(Benzothiazol-2-yloxy)-benzyl]-ethyl-amino}-ethanol]	28 nM
c1ccc2sc(Oc3ccc(OCCN4CCC(N5CCCCC5)CC4)cc3)nc2c1 [Example 80, 1′-{2-[4-(Benzothiazol-2-yloxy)-phenoxy]-ethyl}-[1,4′]bipiperidine]	23 nM
O=C(O)CN1CCN(Cc2ccc(Oc3nc4ccccc4s3)cc2)CC1 [Example 366, {4-[4-(Benzothiazol-2-yloxy)-benzyl]-piperazin-1-yl}-acetic acid]	39 nM
c1ccc(Cn2nnnc2C2CCN(CCOc3ccc(Oc4nc5ccccc5s4)cc3)CC2)cc1 [Example 143, 2-(4-{2-[4-(1-Benzyl-1H-tetrazol-5-yl)-piperidin-1-yl]-ethoxy}-phenoxy)-benzothiazole]	64 nM
O=C(O)[C@@H]1CCCN(CCc2ccc(Oc3nc4ccccc4s3)cc2)C1 [Example 183, (R)-1-{2-[4-(Benzothiazol-2-yloxy)-phenyl]-ethyl}-piperidine-3-carboxylic acid]	18 nM
NC1CCC1C(=O)NCC1CCN(Cc2ccc(Oc3nc4ccccc4s3)cc2)CC1 (stereo not shown) [Example 285, 2-Amino-cyclobutanecarboxylic acid {1-[4-(benzothiazol-2-yloxy)-benzyl]-piperidin-4-ylmethyl}-amide dihydrochloride]	76 nM
NC(=O)CCN(CCc1ccc(Oc2nc3ccccc3s2)cc1)C1CC1 [Example 214, 3-({2-[4-(Benzothiazol-2-yloxy)-phenyl]-ethyl}-cyclopropyl-amino)-propionamide]	18 nM
O=C(O)CN1CCN(CCOc2ccc(Oc3nc4ccccc4s3)cc2)CC1 [Example 163, (4-{2-[4-(Benzothiazol-2-yloxy)-phenoxy]-ethyl}-piperazin-1-yl)-acetic acid]	9 nM
OC1(c2ccc(Cl)cc2)CCN(CCOc2ccc(Oc3nc4ccccc4o3)cc2)CC1 [Example 59, 1-{2-[4-(Benzooxazol-2-yloxy)-phenoxy]-ethyl}-4-(4-chloro-phenyl)-piperidin-4-ol]	5 nM
NC(=S)NC1CCN(Cc2ccc(Oc3nc4ccccc4s3)cc2)CC1 [Example 479, {1-[4-(Benzothiazol-2-yloxy)-benzyl]-piperidin-4-yl}-thiourea]	7 nM
OC1CCN(CCCc2ccc(Oc3nc4ccccc4o3)cc2)CC1 [Example 36, 1-{3-[4-(Benzooxazol-2-yloxy)-phenyl]-propyl}-piperidin-4-ol]	14 nM

Other lines, results leading:

IC50	SMILES
3 nM	O=C(O)CCN(CCc1ccc(Oc2nc3ccccc3s2)cc1)Cc1ccccc1 [Example 192, 3-({2-[4-(Benzothiazol-2-yloxy)-phenyl]-ethyl}-benzyl-amino)-propionic acid]
4 nM	O=C(O)CCC1CCN(CCc2ccc(Oc3nc4ccccc4s3)cc2)CC1 [Example 202, 3-(1-{2-[4-(Benzothiazol-2-yloxy)-phenyl]-ethyl}-piperidin-4-yl)-propionic acid]
1 nM	CN(C1CCN(Cc2ccc(Oc3nc4ccccc4s3)cc2)CC1)S(C)(=O)=O [Example 255, N-{1-[4-(Benzothiazol-2-yloxy)-benzyl]-piperidin-4-yl}-N-methyl-methanesulfonamide]
1 nM	CCCN(CCc1ccc(Oc2nc3ccccc3o2)cc1)CC1CC1 [Example 92, {2-[4-(Benzooxazol-2-yloxy)-phenyl]-ethyl}-cyclopropylmethyl-propyl-amine]
3 nM	O=C(Cc1ccccc1)NC1CCN(CCOc2ccc(Oc3nc4ccccc4o3)cc2)CC1 [Example 78, N-(1-{2-[4-(Benzooxazol-2-yloxy)-phenoxy]-ethyl}-piperidin-4-yl)-2-phenyl-acetamide]
2 nM	c1ccc2sc(Oc3ccc(CCN(CCCc4nn[nH]n4)C4CC4)cc3)nc2c1 [Example 389, {2-[4-(Benzothiazol-2-yloxy)-phenyl]-ethyl}-cyclopropyl-[3-(2H-tetrazol-5-yl)-propyl]-amine]
6 nM	CCN(CC)Cc1ccc(Oc2nc3ccccc3s2)cc1 [Example 294, [4-(Benzothiazol-2-yloxy)-benzyl]-diethyl-amine]
4 nM	COC(=O)NC1CCN(Cc2ccc(Oc3nc4ccccc4s3)cc2)CC1 [Example 363, {1-[4-(Benzothiazol-2-yloxy)-benzyl]-piperidin-4-yl}-carbamic acid methyl ester]
2 nM	c1ccc2oc(Oc3ccc(CN4CCCCC4)cc3)nc2c1 [Example 271, 2-(4-Piperidin-1-ylmethyl-phenoxy)-benzooxazole]
4 nM	c1ccc2sc(Oc3ccc(CCN4CCC(c5nnn[nH]5)CC4)cc3)nc2c1 [Example 262, 2-(4-{2-[4-(1H-Tetrazol-5-yl)-piperidin-1-yl]-ethyl}-phenoxy)-benzothiazole]
4 nM	O=C1NCCC12CCN(CCOc1ccc(Oc3nc4ccccc4s3)cc1)CC2 [Example 25, 8-{2-[4-(Benzothiazol-2-yloxy)-phenoxy]-ethyl}-2,8-diaza-spiro[4.5]decan-1-one]
4 nM	O=C(O)CCCCCN(CCc1ccc(Oc2nc3ccccc3s2)cc1)C1CC1 [Example 419, 6-({2-[4-(Benzothiazol-2-yloxy)-phenyl]-ethyl}-cyclopropyl-amino)-hexanoic acid]
1 nM	O=C(O)CC1CCCN(CCc2ccc(Oc3nc4ccccc4s3)cc2)C1 (stereo not shown) [Example 157, (1-{2-[4-(Benzothiazol-2-yloxy)-phenyl]-ethyl}-piperidin-3-yl)-acetic acid]
